From PubChem BioAssay AID1346 (Sanford-Burnham Center for Chemical Genomics, 2008)
The source made the active and inactive calls.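 Rule for the calls: active = compounds whose cell survival under thapsigargin stays above the level of untreated control cells; inactive = the rest, which was every compound here.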

System: PC12 rat cells, thapsigargin death, ATPlite luminescence, 24 h
Test: protection from thapsigargin-triggered PC12 cell death, SAR follow-up, undifferentiated PC12, rat pheochromocytoma, ATP luminescence (AID 1346)
Conditions: at 25 µM, stronger effect = higher value
[1] = measured here: survival at 0.25 uM thapsigargin
[2] = measured here: survival at 1 uM thapsigargin

Row | Compound | survival | survival [1] [%] | survival [2] [%]
1 | COc1ccc(C2CC(=O)C3=C(C2)Nc2ccccc2NC3c2cccc(Oc3ccccc3)c2)cc1OC (stereo not drawn) | 49% (inactive) | 29 | 28
2 | CCCOc1ccc(C2Nc3ccccc3NC3=C2C(=O)CC(c2ccc(OC)c(OC)c2)C3)cc1 (stereo not drawn) | 25% (inactive) | 28 | 26
3 | COc1ccc(C2CC(=O)C3=C(C2)Nc2ccccc2NC3c2cccc(C(F)(F)F)c2)cc1OC (stereo not drawn) | 26% (inactive) | 25 | 23
4 | COc1ccc(C2CC(=O)C3=C(C2)Nc2ccccc2NC3c2ccccc2C(F)(F)F)cc1OC (stereo not drawn) | 30% (inactive) | 26 | 24
5 | COc1ccc(C2CC(=O)C3=C(C2)Nc2ccccc2NC3c2cc(C)ccc2C)cc1 (stereo not drawn) | 25% (inactive) | 27 | 26
6 | O=C1CC(c2ccccc2)CC2=C1C(c1c(F)cccc1Cl)Nc1ccccc1N2 (stereo not drawn) | 22% (inactive) | 34 | 24
7 | CC1(C)CC(=O)C2=C(C1)Nc1ccccc1NC2c1ccc(-c2ccccc2)cc1 (stereo not drawn) | 37% (inactive) | 33 | 29
8 | CCOc1cccc(C2Nc3ccccc3NC3=C2C(=O)CC(c2ccc(OC)cc2)C3)c1 (stereo not drawn) | 30% (inactive) | 18 | 14
9 | COc1ccc(C2CC(=O)C3=C(C2)Nc2ccccc2NC3c2cccc(Br)c2)cc1OC (stereo not drawn) | 31% (inactive) | 25 | 21
10 | CCOc1cc(C2Nc3ccccc3NC3=C2C(=O)CC(c2ccc(OC)cc2)C3)cc(Cl)c1O (stereo not drawn) | 26% (inactive) | 38 | 35
11 | CSc1ccc(C2Nc3ccccc3NC3=C2C(=O)CC(c2ccccc2)C3)cc1 (stereo not drawn) | 31% (inactive) | 23 | 19
